The values that follow come from ChEMBL document CHEMBL1201862, “PubChem BioAssay data set” (2004).

Assay [1] concerns Streptococcus sp. 'group A'. The assay can be described thus: Streptococcus pyogenes SK(-)GAS viability under kanamycin – luminescence, BacTiterGlo, confirmation, counter-screen for streptokinase expression inhibitor project, dose response (AID 1900). The assay is classed as functional, organism-based. Background: A counterscreen serves to expose hits that act by an unwanted route or on another target.

Assay [2] is described as follows: NIH3T3 cell viability loss – ATP luminescence, mouse fibroblasts, counter-screen, dose response (AID 2010).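 Further: cells exposed to compound for about 90 hours before reading.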 The class given is functional, cell-based.
A further assay relates to CHO. Put plainly: CHO cell viability loss, potency – luminescence, cytotoxicity control for TLR9-MyD88 binding inhibitor project, dose response (AID 588339).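 Further: CHO cells stably coexpressing TLR9 and MyD88 fusions from primary screen; compound exposure lasted 48 hours before viability readout.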 The class given is functional, cell-based, hamster. Particulars: Cricetulus griseus.
The next assay deals with Beta-galactosidase (Escherichia coli, UniProt Q8VNN2). The assay can be described thus: PubChem AID 485352. The assay is classed as functional.
The subject of assay [3] is BJ. The assay can be described thus: BJ-TERT fibroblast viability loss – cell-based, RAS-independent, luminescence, dose response (AID 1933). The assay is classed as functional. Particulars: Homo sapiens.
The next assay concerns the target Beta Lactamase (Pseudomonas aeruginosa, UniProt Q932Y6). The assay can be described thus: BLA reporter interference, concentration series – BLA reporter cells, FRET fluorescence, artefact control for TLR9-MyD88 binding inhibitor project, dose response (AID 588341).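 Further: cell based assay in CHO-K1 cells stably expressing beta-lactamase.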 The class given is cell-based.
A further assay deals with Streptococcus. The assay can be described thus: GAS UMAA2166 growth inhibition – luminescence, BacTiterGlo, counter-screen for streptokinase expression inhibitor project, dose response (AID 1915).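 Further: potency for reduction of bacterial viability or growth.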 The assay is classed as functional, organism-based.
Assay [4] is described as follows: DRD fibroblast viability loss – cell-based, non-viral oncogenic, luminescence, dose response (AID 1934). The class given is functional. Particulars: Homo sapiens.
The target in assay [5] is T1, High affinity choline transporter 1 (Homo sapiens, UniProt Q9GZV3).
T1 sequence (Q9GZV3 whole entry): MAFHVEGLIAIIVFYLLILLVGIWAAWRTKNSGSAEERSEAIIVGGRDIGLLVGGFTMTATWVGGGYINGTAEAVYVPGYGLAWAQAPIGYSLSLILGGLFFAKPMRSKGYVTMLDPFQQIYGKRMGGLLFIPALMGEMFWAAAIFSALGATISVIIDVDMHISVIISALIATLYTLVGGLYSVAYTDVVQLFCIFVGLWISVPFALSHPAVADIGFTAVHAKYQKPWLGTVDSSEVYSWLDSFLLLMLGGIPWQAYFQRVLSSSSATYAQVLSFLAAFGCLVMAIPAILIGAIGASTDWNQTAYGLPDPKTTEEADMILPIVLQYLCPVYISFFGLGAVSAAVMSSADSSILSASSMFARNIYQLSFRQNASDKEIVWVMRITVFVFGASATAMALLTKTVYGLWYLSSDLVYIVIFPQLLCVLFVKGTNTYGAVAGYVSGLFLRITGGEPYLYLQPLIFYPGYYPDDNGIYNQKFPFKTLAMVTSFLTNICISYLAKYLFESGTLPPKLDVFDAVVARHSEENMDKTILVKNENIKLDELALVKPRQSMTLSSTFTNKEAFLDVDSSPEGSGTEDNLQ
Put plainly: human choline transporter blockers, potency – cell-based, 10-point CRC, membrane potential dye, dose response (AID 588401).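 Further: membrane potential dye fluorescence of choline-evoked depolarization via CHT.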 The class given is functional.

Assay [6] deals with BJ. The assay can be described thus: BJ-TERT-LT-ST fibroblast viability loss – cell-based, RAS-independent, luminescence, dose response (AID 1935).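 Further: BJ fibroblasts immortalized with TERT plus LT and ST oncogenes.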 Particulars: Homo sapiens. The class given is functional.
Assay [7] concerns the target T2, Type-1 angiotensin II receptor (Homo sapiens, UniProt P30556).
T2 sequence (P30556 whole entry): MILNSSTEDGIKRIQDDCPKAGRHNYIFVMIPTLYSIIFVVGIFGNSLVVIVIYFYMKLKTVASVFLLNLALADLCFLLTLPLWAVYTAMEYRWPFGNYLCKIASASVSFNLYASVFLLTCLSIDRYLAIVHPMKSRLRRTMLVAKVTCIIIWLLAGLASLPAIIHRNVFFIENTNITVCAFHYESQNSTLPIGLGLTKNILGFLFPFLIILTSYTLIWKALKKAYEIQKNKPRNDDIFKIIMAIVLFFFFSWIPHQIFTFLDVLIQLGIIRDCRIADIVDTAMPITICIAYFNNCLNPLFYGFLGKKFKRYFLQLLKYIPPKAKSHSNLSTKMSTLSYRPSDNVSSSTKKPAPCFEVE
Put plainly: antagonism of angiotensin II type 1 receptor – cell-based, uHTS hits, selectivity assay for APJ receptor antagonist project, dose response (AID 463214).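 Further: antagonist potency against angiotensin II stimulated AT1 response.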 The assay is classed as functional.

The target in assay [8] is T3, Heat shock factor protein 1 (Mus musculus, UniProt P38532).
T3 sequence (P38532 whole entry): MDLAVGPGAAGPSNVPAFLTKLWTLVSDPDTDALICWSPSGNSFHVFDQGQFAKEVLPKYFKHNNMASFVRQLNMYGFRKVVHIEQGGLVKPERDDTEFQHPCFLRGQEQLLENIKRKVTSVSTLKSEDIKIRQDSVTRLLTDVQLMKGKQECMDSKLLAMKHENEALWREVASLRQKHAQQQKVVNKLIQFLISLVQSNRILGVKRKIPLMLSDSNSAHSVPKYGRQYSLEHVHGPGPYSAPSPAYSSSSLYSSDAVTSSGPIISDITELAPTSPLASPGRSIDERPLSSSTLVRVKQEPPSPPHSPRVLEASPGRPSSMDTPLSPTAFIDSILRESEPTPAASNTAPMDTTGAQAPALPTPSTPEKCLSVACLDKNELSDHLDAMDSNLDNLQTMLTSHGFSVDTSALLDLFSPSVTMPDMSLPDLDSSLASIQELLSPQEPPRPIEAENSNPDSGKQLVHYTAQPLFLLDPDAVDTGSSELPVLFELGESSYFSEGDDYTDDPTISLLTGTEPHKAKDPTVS
Put plainly: enhancement of HSF1-driven luciferase signal – cell-based, NIH3T3, luminescence, dose retest, confirmation (AID 435004).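 Further: stress induced by proteasome inhibitor MG132 added 30 min after compound; luciferase reporter driven by HSF1 response element in NIH3T3 cells; actives raise luminescence as potentiators of the MG132 stress response.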 The class given is functional.

The target in a further assay is T4, Streptokinase A (Streptococcus pyogenes serotype M1, UniProt P10520).
T4 sequence (P10520 whole entry): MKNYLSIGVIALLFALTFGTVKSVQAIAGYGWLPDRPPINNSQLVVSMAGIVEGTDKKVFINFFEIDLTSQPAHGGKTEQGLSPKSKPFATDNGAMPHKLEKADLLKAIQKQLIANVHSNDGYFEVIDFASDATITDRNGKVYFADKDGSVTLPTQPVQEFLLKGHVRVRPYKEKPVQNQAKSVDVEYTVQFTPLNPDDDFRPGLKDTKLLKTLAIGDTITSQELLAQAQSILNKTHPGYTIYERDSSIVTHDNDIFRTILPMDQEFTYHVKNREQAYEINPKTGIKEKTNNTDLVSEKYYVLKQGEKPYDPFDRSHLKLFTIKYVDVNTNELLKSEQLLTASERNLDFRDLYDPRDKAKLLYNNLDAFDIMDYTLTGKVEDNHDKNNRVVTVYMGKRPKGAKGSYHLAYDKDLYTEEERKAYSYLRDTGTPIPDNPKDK
Put plainly: viability-normalized secreted streptokinase activity reduction – plasminogen activation absorbance, OD405, dose response (AID 1914).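 Further: secreted streptokinase activity via plasminogen activation per viability signal from cell pellet.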 The class given is functional, Streptococcus pyogenes M1 GAS.

The nature of assay [9]: Trypanosoma cruzi growth suppression in host cells – NIH3T3 host cells, beta-gal luminescence, confirmation (AID 2044).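 Further: intracellular parasites grown in NIH/3T3 mouse fibroblasts as host cells; luminescent beta-galactosidase reporter signal from transgenic T. cruzi replicating inside host cells; inhibitors lower the luminescence signal.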 The class given is functional, cell-based.
Assay [10] is described as follows: Fluorescence-based cell-based high throughput dose response assay for inhibitors of the interaction of nucleotide-binding oligomerization domain containing 2 (NOD2) and the receptor-interacting serine-threonine kinase 2 (RIPK2). Particulars: Homo sapiens. The class given is functional.
For the next assay, the target named is Large T antigen (Simian virus 40, UniProt P03070). The class given is functional, Betapolyomavirus macacae.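 Further: Confirmatory-stage PubChem screen for compounds that inhibit SV40 T antigen.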
Assay [11] deals with T1, High affinity choline transporter 1. Put plainly: human choline transporter blockers, potency – cell-based, 5-point CRC, membrane potential dye, dose response (AID 504840). The class given is functional.
Assay [12] concerns BJ. Put plainly: cells. The class given is functional, cell-based. Particulars: Homo sapiens.

The source made the active and inactive calls. For most assays here, no stated cut-off is given here; in the data, actives have a measured EC50 and inactives only a lower limit. Bounds are passed on as bounds.

Chain of Beta-galactosidase (Q8VNN2 whole entry): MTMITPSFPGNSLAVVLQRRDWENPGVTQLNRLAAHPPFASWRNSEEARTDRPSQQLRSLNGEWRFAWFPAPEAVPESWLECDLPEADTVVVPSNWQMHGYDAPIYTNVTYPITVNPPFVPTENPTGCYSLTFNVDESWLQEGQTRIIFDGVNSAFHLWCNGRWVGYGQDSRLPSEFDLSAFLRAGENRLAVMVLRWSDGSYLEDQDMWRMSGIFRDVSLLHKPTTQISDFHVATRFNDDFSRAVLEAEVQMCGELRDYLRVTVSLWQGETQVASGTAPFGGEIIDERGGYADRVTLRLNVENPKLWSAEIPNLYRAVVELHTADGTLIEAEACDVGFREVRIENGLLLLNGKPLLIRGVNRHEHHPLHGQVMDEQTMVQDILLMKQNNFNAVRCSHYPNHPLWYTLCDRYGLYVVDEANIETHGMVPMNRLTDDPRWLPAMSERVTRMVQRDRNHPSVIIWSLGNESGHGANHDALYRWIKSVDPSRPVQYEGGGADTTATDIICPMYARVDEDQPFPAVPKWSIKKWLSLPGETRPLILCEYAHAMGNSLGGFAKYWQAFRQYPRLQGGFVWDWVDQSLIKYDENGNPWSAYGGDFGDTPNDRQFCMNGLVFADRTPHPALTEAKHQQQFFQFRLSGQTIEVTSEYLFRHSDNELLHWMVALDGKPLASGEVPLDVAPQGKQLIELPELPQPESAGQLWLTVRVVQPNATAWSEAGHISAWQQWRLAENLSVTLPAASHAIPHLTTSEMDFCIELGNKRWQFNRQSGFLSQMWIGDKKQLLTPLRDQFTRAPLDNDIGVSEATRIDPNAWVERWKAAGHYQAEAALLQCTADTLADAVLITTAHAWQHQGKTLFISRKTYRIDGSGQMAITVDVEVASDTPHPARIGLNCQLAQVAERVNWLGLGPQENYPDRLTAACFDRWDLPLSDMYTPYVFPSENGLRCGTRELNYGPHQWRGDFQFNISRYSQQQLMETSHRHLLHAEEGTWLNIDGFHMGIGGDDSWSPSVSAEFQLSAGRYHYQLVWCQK
Chain of Large T antigen (P03070 whole entry): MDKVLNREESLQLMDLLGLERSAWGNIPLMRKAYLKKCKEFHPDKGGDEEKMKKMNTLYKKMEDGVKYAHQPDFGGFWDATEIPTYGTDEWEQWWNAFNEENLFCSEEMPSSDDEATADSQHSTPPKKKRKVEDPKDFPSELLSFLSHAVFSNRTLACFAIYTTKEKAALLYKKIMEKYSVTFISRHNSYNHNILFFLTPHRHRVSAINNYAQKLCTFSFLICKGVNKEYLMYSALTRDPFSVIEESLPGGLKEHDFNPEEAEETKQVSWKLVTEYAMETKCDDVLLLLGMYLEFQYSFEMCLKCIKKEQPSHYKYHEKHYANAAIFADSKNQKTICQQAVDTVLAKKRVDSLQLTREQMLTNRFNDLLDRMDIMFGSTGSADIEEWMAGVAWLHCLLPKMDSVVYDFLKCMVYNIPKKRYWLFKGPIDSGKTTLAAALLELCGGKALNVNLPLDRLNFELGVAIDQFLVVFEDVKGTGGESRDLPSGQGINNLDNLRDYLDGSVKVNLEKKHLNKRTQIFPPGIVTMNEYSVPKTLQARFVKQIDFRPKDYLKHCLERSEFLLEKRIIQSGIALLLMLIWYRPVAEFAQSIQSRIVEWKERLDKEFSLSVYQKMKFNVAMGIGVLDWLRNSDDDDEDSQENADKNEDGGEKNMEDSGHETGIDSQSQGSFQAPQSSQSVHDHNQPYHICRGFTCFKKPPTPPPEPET
Chain of Beta Lactamase (Q932Y6 whole entry): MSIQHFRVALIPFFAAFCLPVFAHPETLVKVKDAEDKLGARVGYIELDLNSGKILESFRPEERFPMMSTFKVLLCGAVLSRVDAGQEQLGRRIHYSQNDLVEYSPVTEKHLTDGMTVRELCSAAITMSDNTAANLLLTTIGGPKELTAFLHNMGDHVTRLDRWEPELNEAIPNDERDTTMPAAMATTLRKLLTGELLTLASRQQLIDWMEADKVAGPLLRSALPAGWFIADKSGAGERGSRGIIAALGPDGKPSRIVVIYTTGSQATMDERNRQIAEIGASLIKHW

One may read the EC50 as the concentration needed to bring the measured effect to its halfway point. The term IC50 denotes the point on the concentration scale where inhibition reaches its midpoint. `CCn1nc(C)cc1-c1nnc(Sc2ncc([N+](=O)[O-])s2)n1C`: the EC50 in assay [1] is 7.07 µM (active); in assay [2], 3.07 µM (active); at Beta-galactosidase, > 40 µM (inactive); in the assay on BJ [3] it was 2.09 µM (active); with Streptococcus, 12.4 µM (active); in assay [4], 5.37 µM (active). For the same molecule, the EC50 in the assay on BJ [6] is 3.46 µM (inconclusive); in [8], 2.9 µM (inconclusive); on Streptokinase A it was > 150 µM (not active); in assay [9] it was 0.759 µM (active); with BJ [12], 7.27 µM (active). The concentration for half-maximal inhibition (IC50) in the assay with CHO was 1.08 µM (active); on Beta Lactamase, 46 µM (inactive); in assay [5], 3.76 µM (active); in assay [7], 5.36 µM (active); in assay [10], 0.802 µM (active); on Large T antigen, 17.6 µM (active). Also, in assay [11], the half-maximal inhibitory concentration (IC50) was 8.13 µM (active).
